Measurements reported in patent US12551471B2, “ABT-751 and ionizing radiation” (Stichting Het Nederlands Kanker Instituut-Antoni van …, priority 2020, dated 2026).
Entries after “also recorded” stand apart in the source; their conditions may differ.

Key:
[1] = Plasma and brain concentration after oral administration (LC-MS/MS); assay type: in vivo; settings: mice, oral 50 mg/kg
Description: In order to facilitate the in vivo translation of the radiosensitization approach, we first established the dose level that achieved clinically relevant plasma concentrations in mice. Using a validate LC-MS/MS method, we measured the plasma concentration—time curve in mice following oral administration of 50 mg/kg ABT-751 in formulation containing DMSO:Cremophor EL:H2O (1:1:8).

[2] = system: U87 human brain cancer cell line; test: Radiosensitization efficacy study, orthotopic U87 model; assay type: in vivo, mice
Text: This U87 model is more intrinsically radiosensitive and was therefore irradiated with fractions of 1 Gy instead of 4 Gy as used above.

[3] = system: cancer cell lines of various origins (brain, colorectal, prostate, head & neck and cervical cancer); test: Flow cytometric cell cycle analysis (propidium iodide and phospho-histone H3 staining); assay type: cell-based
Description: We first studied whether ABT-751 increases the mitotic population of cancer cell lines (FIG. 1). Several lines of various origins—brain, colorectal, prostate, head & neck and cervical cancer—were exposed to a dose range of ABT-751 and incubated for 6 hours, after which the cell cycle was analyzed by flow cytometry. […] This analysis confirmed that ABT-751 dose-dependently increases the mitotic population of cancer cell lines at the expense of the relatively radio-resistant G1 population. […] This shift in cell cycle distribution will hereafter be referred to as induction of mitotic enrichment. […] Importantly, the G2 phase of the cell cycle is unaffected. […] In the first set-up, we irradiated cells prior to exposure to ABT-751 (FIG. 5A). In the second approach, we irradiated cells prematurely after only 1 hour of exposure to ABT-751 while maintaining the total exposure time of ABT-751 at 6 hours (FIG. 5B).

[4] = system: tumor cells from various origins; test: Clonogenic assays with ionizing radiation (radiosensitization); assay type: cell-based
Description: Using clonogenic assays, we confirmed that induction of mitotic enrichment by ABT-751 radiosensitizes tumor cells from various origins. To achieve induction of mitotic enrichment, we exposed cells to 1 μM of ABT-751 for 6 hours, at which time we exposed cells to a dose range of ionizing radiation (FIG. 4A). Directly after irradiation, we washed ABT-751 away and waited for 18 hours before the process was repeated. In total, the process of induction of mitotic enrichment and subsequent irradiation was repeated 4 times to resemble a clinical hyperfractionation schedule. After the last fraction, cells were left to grow out into viable colonies and clonogenic potential was quantified. […] In the first set-up, we irradiated cells prior to exposure to ABT-751 (FIG. 5A). In the second approach, we irradiated cells prematurely after only 1 hour of exposure to ABT-751 while maintaining the total exposure time of ABT-751 at 6 hours (FIG. 5B).

[5] = system: various cancer cell lines; test: Cell survival assay; assay type: cell-based; settings: 1 μM ABT-751, up to 10 hours of exposure
Text: Importantly, induction of mitotic enrichment could be achieved without inducing cytotoxicity.

[6] = system: GSC457 brain cancer cells; test: Mitotic enrichment (p-H3 immunohistochemistry) in orthotopic GSC457 brain tumors; assay type: in vivo, mice
Description: To study the pharmacokinetic-pharmacodynamic relationship of ABT-751 in vivo, we made use of a genetically engineered mouse model-derived brain cancer model that was previously established in our lab. We implanted these GSC457 brain cancer cells in the brains of recipient mice and followed up their growth using bioluminescence imaging. When full-blown tumors had established, we treated tumor-bearing mice with different doses of ABT-751 and collected their brains 6 hours or 24 hours after administration. […] We next aimed to confirm whether repeated induction of mitotic enrichment was feasible and efficient in vivo. Using the same murine brain cancer model as described above, we quantified the number of mitotic cells in tumors 6 hours after administration of one dose of 50 mg/kg of ABT-751 and compared the levels to those in tumors 6 hours after receiving a second administration of 50 mg/kg of ABT-751 either 24 or 48 hours after the first administration. We again confirmed that mitotic enrichment can efficiently be induced by ABT-751 in brain cancer in vivo (FIG. 8). […] In the clinic, the standard-of-care for glioblastoma—the most common and aggressive adult brain cancer—involves ionizing radiation and concomitant alkylating chemotherapy using temozolomide. Therefore, we next confirmed that induction of mitotic enrichment in vivo using ABT-751 is compatible with chemo-radiotherapy.

[7] = Animal weights throughout efficacy studies; assay type: in vivo; settings: mice bearing orthotopic GSC457, U87 or GBM8 tumors
Text: Finally, to investigate whether the mitotic enrichment strategy using ABT-751 induced toxicity in healthy tissues we studied several parameters.

[8] = system: GSC457 tumors and healthy surrounding brain tissue; test: Immunohistochemistry for DNA damage and apoptosis markers, on-treatment samples, orthotopic GSC457 tumors; assay type: in vivo, mice; settings: ABT-751 prior to radiotherapy
GSC457 tumors = test: Radiosensitization efficacy study, orthotopic GSC457 tumors; assay type: in vivo, mice; settings: 4 weeks
Description: The first model is described above and was also used to study the […] relationship in FIGS. 7-9. Mice bearing these GSC457 tumors were stratified between 5 treatment arms: • 1. Control treatment, • 2. 50 mg/kg daily ABT-751 for 4 days/week for 4 consecutive weeks • 3. 4 Gy of ionizing radiotherapy (RT) for 4 days/week for 4 consecutive weeks • 4. ABT-751 given 6 hours prior to RT for 4 days/week for 4 consecutive weeks • 5. RT administered prior to ABT-751 for 4 days/week for 4 consecutive weeks
(§1) The growth of these tumors could be followed up using bioluminescence imaging.

GBM8 tumors = test: Radiosensitization efficacy study, orthotopic GBM8 model; assay type: in vivo, mice
Description: Mice bearing these GBM8 tumors were stratified between 5 treatment arms: • 1. Control treatment, • 2. 100 mg/kg daily ABT-751 for 4 days/week for 6 consecutive weeks • 3. 4 […] Gy of ionizing radiotherapy (RT) for 4 days/week for 6 consecutive weeks • 4. ABT-751 given 6 hours prior to RT for 4 days/week for 6 consecutive weeks • 5. RT administered prior to ABT-751 for 4 days/week for 6 consecutive weeks
as §1

[9] = cells irradiated prior to exposure to ABT-751
[10] = dose range of ABT-751, incubated for 6 hours
[11] = two brain cancer cell lines, 1 μM for up to 8 hours, washed away, followed until 48 hours
[12] = healthy surrounding brain tissue
[13] = ABT-751 6 hours prior to RT, versus radiotherapy
[14] = ABT-751 alone, 100 mg/kg daily, 4 days/week, 6 weeks

SMILES: COc1ccc(S(=O)(=O)Nc2cccnc2Nc2ccc(O)cc2)cc1 [ABT-751, N-[2-(4-hydroxyanilino)-3-pyridinyl]-4-methoxybenzenesulfonamide]
- concentration in the brain ([1]; 8 hours after administration, 50 mg/kg): still in the range of the concentration that is sufficient to induce mitotic enrichment in vitro; also recorded: supersede the concentration required to achieve mitotic enrichment in vitro for up to 8 hours
- plasma concentration ([1]; DMSO:Cremophor EL:H2O (1:1:8)): in the range of those achieved in patients at a clinically safe dose levels for up to 8 hours
- survival benefit ([2]; ABT-751 6 hours prior to RT, fractions of 1 Gy): doubled the survival benefit that was achieved by RT alone
- survival benefit ([2]; ABT-751 administered after RT): did not achieve a survival benefit
- mitotic enrichment [3, 9]: could not induce mitotic enrichment when cells were irradiated prior to exposure
- G1 cells (DNA 2N, pHH3-) [3, 10]: at the expense of G1 cells
- S phase cells (DNA 2N-4N, pHH3-) [3, 10]: stay unaffected
- amount of G2 cells (DNA 4N, pHH3-) [3, 10]: appears to increase slightly
- percentage of mitotic cells (DNA 4N, pHH3+) [3, 10]: dose-dependently increases the percentage of mitotic cells
- G2 phase of the cell cycle [3, 11]: unaffected
- mitotic population over time and after wash-out (reversibility) [3, 11]: induces a time-dependent increase of the mitotic population that reverts back to pre-exposure levels after the drug is removed
- concentration at which maximum achievable mitotic enrichment was achieved ([3]; within 6 hours, all cell lines tested): 1 µM
- clonogenic potential (radiosensitization) ([4]; 1 μM ABT-751 for 6 hours before ionizing radiation, repeated 4 times): radiosensitizes cancer cells of various origins
- clonogenic potential (radiosensitization) ([4]; cells irradiated after only 1 hour of exposure, total exposure 6 hours): In neither of the sequences radiosensitizing effects of ABT-751 were observed
- clonogenic potential (radiosensitization) [4, 9]: In neither of the sequences radiosensitizing effects of ABT-751 were observed
- viability (cytotoxicity) [5]: No loss of viability was observed up to 10 hours of exposure
- mitotic population ([6]; all doses, 24 hours after administration): reverted to baseline levels
- mitotic enrichment in brain tumors (p-H3 staining) ([6]; different doses, brains collected 6 hours after administration): dose-dependently induced mitotic enrichment in brain tumors in vivo
- mitotic enrichment ([6]; given concomitantly with chemo-radiotherapy involving temozolomide): can induce mitotic enrichment
- mitotic enrichment ([6]; given concomitantly with radiotherapy alone): can induce mitotic enrichment
- doses achieving the most clear increases in mitotic enrichment ([6]; p-H3 staining, GSC457 tumors): ≥ 50 mg/kg
- repeated induction of mitotic enrichment ([6]; second 50 mg/kg dose 24 or 48 hours after the first, 6 hours after administration): feasible without loss of efficiency when a waiting period of 24 hours or longer is observed between subsequent doses
- weight of mice [7]: no treatment-related weight loss
- DNA damage (yH2A.X) [8, 12]: did not increase DNA damage (yH2A.X)
- apoptosis (cleaved-Caspase 3) [8, 12]: did not increase
- apoptosis ([8]; in the tumor, compared to radiotherapy alone): did strongly increase apoptosis specifically in the tumor compared to radiotherapy alone
- effect of RT on tumor growth and mouse survival (GSC457 tumors; 50 mg/kg ABT-751 6 hours prior to 4 Gy RT, 4 days/week): could be enhanced by given ABT-751 6 hours prior to every fraction of radiotherapy
- radiosensitizing effect (GSC457 tumors; RT administered prior to ABT-751, 4 days/week): a similar radiosensitizing effect could not be observed
- survival (GBM8 tumors; [13]): extended survival
- tumor growth (GBM8 tumors; [13]): further slowed down tumor growth
- efficacy (tumor growth, survival) (GBM8 tumors; ABT-751 administered after radiotherapy): Increased efficacy could not be observed
- survival (GBM8 tumors; [14]): did not affect
- tumor growth (GBM8 tumors; [14]): did not affect tumor growth
